Results from patent US5270308A, “1,3-benzoxazine derivatives, their production and use” (Takeda Chemical Industries, Ltd., priority 1990, dated 1993).

How the values were obtained:
[1] = test system: spontaneously hypertensive rat; experiment: Hypotensive activity in spontaneously hypertensive rats; type: in vivo; settings: po, orally, conscious spontaneously hypertensive rat, male, 20 to 23 weeks old, read-out: maximum effect (%) (mean ratio of maximum decrease in the blood pressure)
Description: Hypotensive Activity in Rats
Method: A spontaneously hypertensive rat (male, 20 to 23 weeks old) was operated in advance for retaining a cannula for blood pressure measurement in the left femoral artery. The experiment was carried out for the rat when waking on the next day after the operation. The cannula was connected with a transducer (Specrtramed) upon the experiment and the blood pressure was measured (Nippon Koden, Japan). A test compound was suspended in gum arabic and the suspension was administered orally.

[2] = test system: Rat Aorta Sample (constriction by KCl); experiment: Vasorelaxation activity in rat aorta sample: effect on constriction caused by potassium chloride (KCl); type: cell-based, Male Wister rats; settings: KCl (80 mM), rat aorta ring, read-out: constriction inhibitory ratio (%)
Description: (§1) Vasorelaxation Activity in Rat Aorta Sample
Effect on Relaxation Caused by Potassium Chloride (KCl)
Method: According to the same manner as that described in Experiment 1, this experiment was carried out except that KCl (80 mM) was used instead of TEA and Ba.
Result: The results are shown in Table 4 in terms of the inhibitory ratio of the test compound.

[3] = test system: Rat Aorta Sample (constriction by TEA and Ba); experiment: Vasorelaxation activity in rat aorta sample: effect on constriction caused by tetraethylammonium chloride (TEA) and barium chloride (Ba); type: cell-based, Male Wister rats; settings: TEA (30 to 45 mM) and Ba (0.3 mM), rat aorta ring, read-out: constriction inhibitory ratio (%)
Description: as §1
Effect on Relaxation Caused by Tetraethylammonium Chloride (TEA) and Barium Chloride (Ba)
Method: Male Wister rats (10 to 13 weeks old) were used for the experiment. After dehematization, the aorta was excised and a ring sample (5 mm) was prepared. The sample was suspended in a bath filled with oxygenated (95% O2 -5% CO2) Krebs solution (36° C.). The ring sample was fixed at one end and the other end was connected to a transducer (Nippon Koden, Japan) for recording tension and the tension was measured. After a stabilization period of 1 hour, TEA (30 to 45 mM) and Ba (0.3 mM) were added to the bath to cause vasoconstriction. After the constriction has reached a steady state (after about 15 minutes), a test compound was added to the bath and its relaxation activity was measured.
Result: The results are shown in Table 3 in terms of the inhibitory ratio of the test compound.

| Compound | inhibition in vivo at 1 mg/kg [1] | inhibition at 1 µM [2] | inhibition at 3 µM [2] | inhibition at 10 µM [2] | inhibition at 1 µM [3] | inhibition at 3 µM [3] | inhibition at 10 µM [3] |
| --- | --- | --- | --- | --- | --- | --- | --- |
| CC1(C)N=C(c2cccc[n+]2[O-])c2cc(Br)ccc2O1 [Compound 23, 2-(6-bromo-2,2-dimethyl-2H-1,3-benzoxazin-4-yl)pyridine N-oxide] | 32% | -1% | 1% | 4% | 19% | 82% | 100% |
| CC1(C)N=C(c2cccc[n+]2[O-])c2cc(Br)c(F)cc2O1 [Compound 95, 2-(6-bromo-7-fluoro-2,2-dimethyl-2H-1,3-benzoxazin-4-yl)pyridine N-oxide] | 55% |  |  |  |  |  |  |
| Cc1cc2c(cc1[N+](=O)[O-])C(c1cccc[n+]1[O-])=NC(C)(C)O2 [Compound 49, 2-(2,2,7-trimethyl-6-nitro-2H-1,3-benzoxazin-4-yl)pyridine N-oxide] |  | -7% | -6% | -3% | 28% | 77% | 86% |
| CC1(C)N=C(c2cccc[n+]2[O-])c2cc(C(F)(F)F)ccc2O1 [Compound 75, 2-(6-trifluoromethyl-2,2-dimethyl-2H-1,3-benzoxazin-4-yl)pyridine N-oxide] | 54% | -2% | 1% | 2% | 38% | 91% | 100% |
| Cc1cc2c(cc1Br)C(c1cccc[n+]1[O-])=NC(C)(C)O2 [Compound 47, 2-(6-bromo-2,2,7-trimethyl-2H-1,3-benzoxazin-4-yl)pyridine N-oxide] |  | -1% | 2% |  | 72% | 100% |  |
| CC1(C)N=C(c2cccc[n+]2[O-])c2cc(Cl)ccc2O1 [Compound 24, 2-(6-chloro-2,2-dimethyl-2H-1,3-benzoxazin-4-yl)pyridine N-oxide] | 38% |  |  | -11% |  | 76% | 94% |
| COc1ccc[n+]([O-])c1C1=NC(C)(C)Oc2ccc(C(F)(F)F)cc21 [Compound 118, 2-(6-trifluoromethyl-2,2-dimethyl-2H-1,3-benzoxazin-4-yl)-3-methoxypyridineN-oxide] | 43% |  |  |  |  |  |  |
| CC1(C)N=C(c2cccc[n+]2[O-])c2cc(Cl)c(Cl)cc2O1 [Compound 79, 2-(6,7-dichloro-2,2-dimethyl-2H-1,3-benzoxazin-4-yl)pyridine N-oxide] | 36% | -5% | -1% | 3% | 24% | 57% | 65% |
| CC1(C)N=C(c2cccc[n+]2[O-])c2cc(C#N)c(Cl)cc2O1 [Compound 91, 2-(7-chloro-6-cyano-2,2-dimethyl-2H-1,3-benzoxazin-4-yl)pyridine N-oxide] | 39% |  |  |  |  |  |  |
| C#Cc1ccc2c(c1)C(c1cccc[n+]1[O-])=NC(C)(C)O2 [Compound 53, 2-(6-ethynyl-2,2-dimethyl-2H-1,3-benzoxazin-4-yl)pyridine N-oxide] |  |  |  | -4% |  |  | 89% |
| CC1(C)N=C(c2cccc[n+]2[O-])c2cc([N+](=O)[O-])ccc2O1 [Compound 29, 2-(2,2-dimethyl-6-nitro-2H-1,3-benzoxazin-4-yl)pyridine N-oxide] | 61% | -8% |  |  | 74% |  |  |
| CC1(C)N=C(c2cccc[n+]2[O-])c2cc(OC(F)(F)F)ccc2O1 [Compound 69, 2-(6-trifluoromethoxy-2,2-dimethyl-2H-1,3-benzoxazin-4-yl)pyridine N-oxide] | 44% |  | -1% | 2% |  | 45% | 81% |
| CCOc1ccc[n+]([O-])c1C1=NC(C)(C)Oc2cc(Cl)c(Br)cc21 [Compound 117, 2-(6-bromo-7-chloro-2,2-dimethyl-2H-1,3-benzoxazin-4-yl)-3-ethoxypyridine N-oxide] | 54% |  |  |  |  |  |  |
| COc1ccc[n+]([O-])c1C1=NC(C)(C)Oc2ccc(C#N)cc21 [Compound 125, 2-(6-cyano-2,2-dimethyl-2H-1,3-benzoxazin-4-yl)-3-methoxypyridine N-oxide] | 23% |  |  |  |  |  |  |
| CC1(C)N=C(c2cccc[n+]2[O-])c2cc(Br)c(Br)cc2O1 [Compound 93, 2-(6,7-dibromo-2,2-dimethyl-2H-1,3-benzoxazin-4-yl)pyridine N-oxide] | 22% |  |  |  | 52% | 71% |  |
| CC1(C)N=C(c2cccc[n+]2[O-])c2cc(C#N)ccc2O1 [Compound 20, 2-(6-cyano-2,2-dimethyl-2H-1,3-benzoxazin-4-yl)pyridine N-oxide] | 39% |  | -4% | -2% |  | 35% | 81% |
| CCOc1ccc[n+]([O-])c1C1=NC(C)(C)Oc2ccc(C#N)cc21 [Compound 38, 2-(6-cyano-2,2-dimethyl-2H-1,3-benzoxazin-4-yl)-3-ethoxypyridine N-oxide] | 58% |  |  |  |  |  |  |
| CC1(C)N=C(c2cccc[n+]2[O-])c2cc(Br)c(Cl)cc2O1 [Compound 89, 2-(6-bromo-7-chloro-2,2-dimethyl-2H-1,3-benzoxazin-4-yl)pyridine 1-oxide] | 33% | -11% | -8% | -3% | 59% | 67% | 71% |
| CC1(C)N=C(c2cccnc2)c2cc(Br)ccc2O1 [Compound 98] |  | -4% | -6% |  |  |  |  |
| COc1ccc[n+]([O-])c1C1=NC(C)(C)Oc2cc(Cl)c(Br)cc21 [Compound 126, 2-(6-bromo-7-chloro-2,2-dimethyl-2H-1,3-benzoxazin-4-yl)-3-methoxypyridine N-oxide] | 49% |  |  |  |  |  |  |
| CCOc1ccc[n+]([O-])c1C1=NC(C)(C)Oc2ccc(C(F)(F)F)cc21 [Compound 124, 3-ethoxy-2-(6-trifluoromethyl-2,2-dimethyl-2H-1,3-benzoxazin-4-yl)pyridine N-oxide] | 48% |  |  |  |  |  |  |
| CC(=O)c1ccc2c(c1)C(c1cccc[n+]1[O-])=NC(C)(C)O2 [Compound 56, 2-(6-acetyl-2,2-dimethyl-2H-1,3-benzoxazin-4-yl)pyridine N-oxide] | 22% |  |  |  |  |  |  |
| Cc1cc2c(cc1C#N)C(c1cccc[n+]1[O-])=NC(C)(C)O2 [Compound 65, 2-(6-cyano-2,2,7-trimethyl-2H-1,3-benzoxazin-4-yl)pyridine N-oxide] |  |  | -2% | 0% |  | 48% | 74% |
| COc1ccc[n+]([O-])c1C1=NC(C)(C)Oc2ccc(Br)cc21 [Compound 129, 2-(6-bromo-2,2-dimethyl-2H-1,3-benzoxazin-4-yl)-3-methoxypyridine N-oxide] | 55% |  |  |  |  |  |  |
| CC1(C)N=C(c2c(O)ccc[n+]2[O-])c2cc(Br)ccc2O1 [Compound 143, 2-(6-bromo-2,2-dimethyl-2H-1,3-benzoxadin-4-yl)-3-hydroxypyridine N-oxide] | 54% |  |  |  |  |  |  |
| CC1(C)N=C(c2cccc[n+]2[O-])c2cc(C(F)(F)C(F)(F)F)ccc2O1 [Compound 77, 2-(6-pentafluoroethyl-2,2-dimethyl-2H-1,3-benzoxazin-4-yl)pyridine N-oxide] | 25% |  | 3% | 10% |  | 45% | 98% |
| CCOc1ccc[n+]([O-])c1C1=NC(C)(C)Oc2ccc(Br)cc21 [Compound 119, 2-(6-bromo-2,2-dimethyl-2H-1,3-benzoxazin-4-yl)-3-ethoxypyridine N-oxide] | 61% |  |  |  |  |  |  |
